Assay results taken from patent publication US9884812B2, “Use of DDX3X inhibitors for the treatment of pneumovirus infections” (priority 2014, dated 2018).
In brackets after ≈: the same amount, converted by molar mass. Like-named read-outs stand apart in the source and are kept apart here.

Key:
HEp2 cells [1] = experiment: MTT toxicity assay; type: cell-based; settings: for Appearance of cell monolayers: compared with carrier controls
Experimental: All experiments shown were carried out in HEp2 cells. Cells were grown in 96 well plates overnight as previously described in 10% FCS medium to 95% confluence level. The medium was aspirated off and replaced with 200ul media with 2% FCS +/− compounds in DMSO carrier as indicated at an identical dilution series to that used in the plaque assays. 8 wells were used per compound/carrier alone dilution. An additional 2 rows of 8 cells were grown in medium alone for reference and subsequently 8 would be used as a cell death control as described below. Cells were incubated at 33° C. as indicated. If the incubation period exceeded 4 days the medium was replaced with the appropriate amount of fresh medium plus compound.
MTT assays were commenced 4 hours before the time period expired. Here 20 uL of MTT [(3-{4,5-dimethylthiazol-2-yl}-2,5-diphenyltetrazolium bromide)] solution (7.5 mg/ml in
PBS) was added. […] The cells were placed back in the incubator at 33° C. After 4 hours, 100 μL of a stop solution (50% formamide, 20% w/v SDS) was added and pipetted to dissolve the substrate. Plates were then left overnight to allow the bubbles to disappear and the OD was recorded at 595 nm. Following subtraction of background solution colour (cell death control), the optical density was expressed as a percentage compared to the DMSO control on each appropriate plate.

hRSV (strain A2) = experiment: Plaque inhibition assay, hRSV; type: cell-based, human respiratory syncytial virus; settings: for Plaque size relative to DMSO control: hRSV plaque assay; for IC50: human respiratory syncytial virus, read-out: IC50 (plaque number vs DMSO control)
Experimental: Example: Plaque inhibition assay
(§1) An identical assay procedure was carried out for hRSV (strain A2) bovine RS (strain Snook) and PVM (strain 15). Virus stocks were diluted 10 fold in GMEM (Invitrogen) so that the wells containing cells received sufficient virus to generate approximately 2000, 200 and 20 plaques per well.
The overlay medium also contained the compound to be tested at appropriate concentrations. Typically the 6 concentrations of the test compounds used were: 100 μM, 31.6 μM, 10 μM, 3.16 μM, 1 μM and 0.316 μM.
Stocks of the test compounds were prepared in DMSO (Sigma) (carrier). Each stock compound was diluted 1 in 200 in overlay medium to give dilutions stated above.
(§2) Cells of a standard cell line known to support pneumovirus replication (typically HEp2 or BSC1 cells) were grown in standard 12 well plates at 37° C. in an atmosphere of 5% (v/v) CO2 until confluent. Medium was aspirated from the cells and replaced with 200 μl aliquots of virus. Aliquots were prepared by diluting virus stocks 10-fold in GMEM (Invitrogen) as described above with no FCS. A mock (no virus) was also set up to test cell viability. The virus was incubated with the cells for 1 hour at 33° C. with gentle rocking every 5-10 minutes. The inocula were removed and 2 ml of overlay medium was added. Overlay medium was either test (plus compound) or control (medium alone or medium containing DMSO). The plates were incubated at 33° C. for 4-8 days to allow plaques to develop as indicated. A volume of 1 ml of additional overlay medium (containing the test compound as appropriate) was added every 3 days. All virus dilutions were carried out with each concentration of test compound, or treated as controls, and each was carried out in triplicate.
(§3) Following incubation, cells were fixed by addition of an equal volume of 4% (v/v) glutaraldehyde (Sigma) in PBS with further incubation for a minimum of 2 hours. The fixing solution was washed off under a slow flowing stream of water and 1 ml of crystal violet (0.075% w/v: Sigma) was added and left for 20 minutes at room temperature. The crystal violet was removed and the fixed cell monolayers washed. Plates were air dried. Plaques counts were recorded from wells with >20 and <200 in number. These numbers provide the most robust statistical reliability for viable plaque counts.
This experimental approach screens the ability of compounds to block the formation of plaques.

PVM (strain 15) = experiment: Plaque inhibition assay, PVM; type: cell-based, pneumonia virus of mice; settings: for Plaque size: PVM plaque assay; for IC50: murine pneumonia virus, PVM, HEp2 cells
Experimental: as §1, §2, §3
(§4) Compounds 1, 4 and 6 were also tested against bovine RSV and pneumonia virus of mice (PVM).
A full plaque assay was carried out for compound 4 using HEp2 cells, with assays of 5 days and 6 days after incubation.

Bovine RSV = experiment: Plaque inhibition assay, bovine RSV; type: cell-based, bovine respiratory syncytial virus; settings: for Plaque size: bRSV plaque assay; for IC50: bovine RSV, 6-day assay, HEp2 cells
Experimental: as §1, §2, §3, §4
The compounds were tested with a 6-day assay using HEp2 cells.

[2] = Solubility in cell medium; type: physicochemical; settings: for Solubility behaviour in cell medium: at 100 μM; for Solubility in cell medium: solution of ligand in DMSO (20 mM) diluted in cell media to 100 μM, scale from 'very poor' (almost insoluble) to 'very good' (freely soluble over extended periods at 4° C.)
RSV = experiment: 96 well plate TCID50 (cellular RSV TCID50 assay); type: cell-based; settings: at >10 μM
Experimental: (§5) This method provides a rapid approach to initially screen compounds and was developed as an increased number of compounds were synthesised. Cells of a standard cell line known to support pneumovirus replication (typically HEp2 or BSC1 cells) were grown to 95% confluence in a 96 well plate. Virus was then added over 5 different half log dilutions starting at a multiplicity of infection of 0.02 plus mock control. Three dilutions of compound plus a DMSO control were screened per plate. […] Identical plate repeats for each compound dilution were fixed in subsequent days as indicated.
Stained plates were read at 595 nm, higher optical density (OD) readings indicate more viable cells remain.

HEp2 or BSC1 cells = experiment: Toxicity to cells in the TCID50 screen (mock control); type: cell-based; settings: cellular RSV TCID50 assay tables
Experimental: as §5, with “Cells of a standard cell line known to support pneumovirus replication (typically HEp2 or BSC1 cells) were grown to 95% confluence in a 96 well plate.” left out

HEp2 cells [3] = experiment: Toxicity observed in plaque assay, HEp2 cells; type: cell-based
Experimental: as §2

BSC1 cells = experiment: Toxicity observed in plaque assay, BSC1 cells; type: cell-based; settings: at 100 μM
Experimental: as §2

[4] = HEp-2, 120 h, hRSV, HEp2 cells, Day 5
[5] = Bovine orthopneumovirus, HEp-2, 144 h, read-out: IC50

| SMILES | Plaque size relative to DMSO control (hRSV (strain A2)) | Plaque size (PVM (strain 15)) | Plaque size (Bovine RSV) | Solubility behaviour in cell medium [2] | Solubility in cell medium [2] | Toxicity (HEp2 or BSC1 cells) | Appearance of cell monolayers (HEp2 cells [1]) | IC50 (hRSV (strain A2); [4]) [µM] | further results |
| --- | --- | --- | --- | --- | --- | --- | --- | --- | --- |
| Cc1ccccc1NC(=O)Nc1cccc([N+](=O)[O-])c1 [Compound 1, 3-(2-methylphenyl)-1-(3-nitrophenyl)urea] | significantly reduce the size of plaques | significantly reduce the size of plaques | significantly reduce the size of plaques | appearance of insolublity | poor | toxic at 32 μM | – | – | Sensitivity in MTT assay (HEp2 cells [1]; days 3 and 4, disappeared after 5 days): increased sensitivity; Concentration above which inhibition of activity is seen (MTT) (HEp2 cells [1]; over the time course): above 10 μM; Plaque size relative to DMSO control (hRSV (strain A2); listed as compound 1): smaller than in the DMSO control; IC50 (Bovine RSV): precipitated out before 50% reduction was seen; solubility ([2]; cell medium, aqueous buffer, kinetic from dmso stock, read-out: Upper limit of soluble concentration): 5 to 10 µM (≈ 1.36 to 2.71 µg/mL); Activity in the TCID50 assay at higher concentration (RSV): no increase in activity |
| CSc1cccc(NC(=O)Nc2ccccc2C)c1 [Compound 4, 1-(2-methylphenyl)-3-[3-(methylsulfanyl)phenyl]urea] | significantly reduce the size of plaques | significantly reduce the size of plaques | significantly reduce the size of plaques | – | good | some toxicity at 100 μM | appeared intact | 4.1 | IC50 (hRSV (strain A2); HEp-2, 144 h, hRSV, HEp2 cells, Day 6): 8.5 µM; IC50 (hRSV (strain A2); HEp-2, 168 h, hRSV, HEp2 cells, Day 7): 15 µM; IC50 (PVM (strain 15); HEp-2, 120 h, day 5): 32 µM; IC50 (PVM (strain 15); HEp-2, 144 h, day 6): 100 µM; IC50 (Bovine RSV; [5]): 80 µM; Toxicity in plaque assay (HEp2 cells [3]; at 10 μM): No obvious toxicity; Toxicity in plaque assay (HEp2 cells [3]; at 31.6 μM): to some degree; Toxicity in plaque assay (HEp2 cells [3]; at 100 μM): showed toxicity |
| Cc1ccccc1NC(=O)Nc1ccc(C#N)cc1 [Compound 6, 1-(4-cyanophenyl)-3-(2-methylphenyl)urea] | significantly reduce the size of plaques | significantly reduce the size of plaques | significantly reduce the size of plaques | – | good | low | appeared intact | 10 | IC50 (plaque number vs DMSO control) (hRSV (strain A2); hRSV, HEp2 cells, Day 6): 50% reduction was not reached; IC50 (plaque number vs DMSO control) (hRSV (strain A2); hRSV, HEp2 cells, Day 7): 50% reduction was not reached; IC50 (Bovine RSV; [5]): 15 µM |
| CSc1cccc(NC(=O)NCCCOCCOCCOCCCNC(=O)Nc2cccc(SC)c2)c1 [Compound 36, 1-[3-(methylsulfanyl)phenyl]-3-[3-(2-{2-[3-({[3-(methylsulfanyl)-phenyl]carbamoyl}amino)propoxy]ethoxy}ethoxy)propyl]urea] | – | – | – | – | good | – | – | – | melting point: 106 to 108 °C |
| CSc1ccc(NC(=O)NCCCOCCOCCOCCCNC(=O)Nc2ccc(SC)cc2)cc1 [Compound 37, 1-[4-(methylsulfanyl)phenyl]-3-[3-(2-{2-[3-({[4-(methylsulfanyl)-phenyl]carbamoyl}amino)propoxy]ethoxy}ethoxy)propyl]urea] | – | – | – | some signs of precipitating out of solution | good | toxic at 50 μM | appeared intact | 17.5 | Toxicity in plaque assay (HEp2 cells [3]; at 100 μM): showed toxicity |
| Cc1ccccc1NC(=O)Nc1cccc(Cl)c1 [Compound 39, 1-(3-chlorophenyl)-3-(o-tolyl)urea] | reduction in plaque numbers (as shown) and size | – | – | moderately soluble | Moderate at 100 μM | Some toxicity at 100 μM | – | – | IC50 (hRSV (strain A2); BSC-1, 96 h, hRSV, BSC1 cells, 4 day assay): 16.5 µM; Toxicity in plaque assay (BSC1 cells): some toxicity |
| Cc1ccccc1NC(=O)Nc1cccc(C(F)(F)F)c1 [Compound 40, 1-(o-tolyl)-3-(3-(trifluoromethyl)phenyl)urea] | – | – | – | – | Good | Low | – | – | Inhibition of plaque formation (hRSV (strain A2); hRSV, BSC1 cells, 4 day assay): moderate inhibition; Toxicity in plaque assay (BSC1 cells): low toxicity |
